Article PMC11052077, “Discovery of Dolutegravir Derivative against Liver Cancer via Inducing Autophagy and DNA Damage” (Molecules, 2024)

Assays:
Huh7 cells [1] = assay: Plate clone formation assay; format: cell-based, human; details: 0, 2, 4, 8, 16, 32 μM, 48 h
Procedure: (§1) To further assess the anti-proliferative activity of dolutegravir derivatives, LIVE/DEAD staining was conducted. Huh7 cells were treated with 5 μM or 10 μM of 5e and 5p for 24 h, followed by live and dead cell imaging and quantification. […] This may be attributed to significant cell proliferation suppression at 10 μM concentration, leading to a limited number of viable cells. Furthermore, to validate the impact of dolutegravir derivatives on cell proliferation, a plate clone formation assay was performed. Cells were exposed to various concentrations (0, 2, 4, 8, 16, and 32 μM) of 5e or 5p.
Huh7 cells were seeded into 6-well plates at a density of 100–500 cells/well. After 10 days culture, cells were added with 5e or 5p at different concentrations (0, 2 μM, 4 μM, 8 μM, 16 μM, 32 μM) for 48 h. Then, cells were fixed by 4% paraformaldehyde and stained by Giemsa dye. An optical microscope was used to photograph cells and the clone numbers were counted.

γ-H2AX in HepG2 cells = assay: γ-H2AX immunofluorescence, HepG2; format: cell-based, human; details: HepG2, 72 h
Procedure: The phosphorylation of H2AX serves as a highly specific and sensitive molecular marker for DNA damage. Through Western blotting, we have confirmed that compounds 5e and 5p induce DNA damage in Huh7 and HepG2 cells. To further substantiate the inhibitory effect of compounds 5e and 5p on Huh7 cells, immunofluorescence was employed to assess their correlation with γ-H2AX.
The HepG2 cells (1 × 10^6) were plated in laser confocal dishes (Nest, Wuxi, China), before Compound 5e and 5p were treated for 72 h. Then, 4% paraformaldehyde was added to each laser confocal dishes for 20 min, after rinsing with PBS. The Triton X-100 was used to penetrate the cells for 20 min. Before the cells were incubated with p-H2AX (Cell Signaling Technology, Danvers, MA, USA) at 1:800 dilution at 4 °C overnight, goat serum was used to block for 30 min. Subsequently, the HepG2 were rinsed with PBS and incubated with Alexa Fluor 488 (Proteintech, Wuhan, China) at a 1:1000 dilution in the dark at room temperature for 1 h. DAPI was added to each laser to stain the cell nucleus for 5 min. Then, the cells were observed under a laser confocal microscope (Nikon, Tokyo, Japan), after rinsing with PBS.

LC3 = assay: Western blot, LC3; format: cell-based, human; details: 2, 4, 8 μM, 48 h, Huh7, western blot
Procedure: (§2) To elucidate the impact of compounds 5e and 5p on the regulation of cell proliferation, we examined the expression levels of key proteins involved in cell growth processes, encompassing autophagy, apoptosis, cell cycle, and DNA damage (Figure 7).
(§3) Protein expression levels were measured by western blot. Huh7 cells were cultured in 12-well plates and different concentrations (0, 2, 4, 8 μM) of 5e and 5p were added for 48 h. Proteins were extracted from whole cells using radio-immunoprecipitation assay (RIPA) buffer containing a protease/phosphatase inhibitor cocktail (CST). Then, 10–15% sodium dodecyl sulfate polyacrylamide gel electrophoresis and nitrocellulose membranes (Millipore) were employed to separate and collect proteins. Antibodies used include LC3 (3868s, CST), Caspase3 (9662, CST), cyclin D (2922s, CST), cyclin E (20808s, CST), γH2AX (9718s, CST), β-Catenin (9562s, CST), and β-actin (4967s, CST).

[2] = test system: HRM cells (human renal mesangial cells); assay: in vitro; format: cell-based; details: 20 µM
Procedure: This study aimed to assess the anti-proliferative activity of dolutegravir-1,2,3-triazole derivatives on hepatocellular carcinoma cell lines, Huh7 and hepG2. A comprehensive CCK8 assay was employed to evaluate the impact of these compounds on cell viability, with cells treated at a concentration of 20 μM for 48 h. HRM cells, a normal cell line, were included as a control for comparative analysis. […]
(§4) CCK8 assay was used to measure cell viability. Cells with a density of 1 × 10^4 cells/well were seeded on 96-well plates. After adhesion, cells were treated with different diluted compounds or vehicle control DMSO and continued to be cultured for 48 h or 72 h, respectively. Then, CCK8 reagent was added for one hour incubation at 37 °C with 5% CO2. Absorbance was measured using a Microplate spectrophotometer (Thermo, Waltham, MA, USA) at 450 nm. The ratio of cell viability of control was taken as 100%. […] Then, IC50 of compounds were investigated using the prism statistical software 7.0.

Huh7 cells [3] = assay: Cellular ROS measurement (DCFH-DA); format: cell-based, human; details: 5, 10 and 20 μM, 24 h, Huh7, DCFH-DA staining
Procedure: Reactive oxygen species (ROS) play a crucial role in inducing cell death and inhibiting cell growth and proliferation. To investigate the impact of compounds 5e and 5p on ROS generation, various cancer cells were treated with 5e or 5p for 24 h. Subsequently, cells were stained with DCFDA [26], and ROS levels were visualized using a fluorescent microscope (Thermo, Beijing, China).
Huh7 cells were cultured in 96-well plates in a density of 5 × 10^3 cells/well. Different concentrations (0, 5, 10 and 20 μM) of 5e or 5p were added to cells, respectively, for 24 h. After treatment, cells were stimulated with 10 μM DCFH-DA for 30 min in 37 °C and then observed and photographed using the fluorescent microscope.

Huh7 cells [4] = assay: LIVE/DEAD staining (live and dead cell measurement); format: cell-based, human; details: 5 μM or 10 μM, 24 h
Procedure: as §1
Huh7 cells with a density of 5 × 10^3 cells/well were seeded on 96-well plates. Then, different concentrations (0, 5 μM, 10 μM) of 5e or 5p were treated for 24 h. Cells were then stained with the LIVE/DEAD Assay Kit, observed and photographed using the fluorescent microscope.

Caspase3 = assay: Western blot, Caspase3; format: cell-based, human; details: 2, 4, 8 μM, 48 h, Huh7, western blot
Procedure: as §2, §3

Huh7 cells [5] = assay: CCK8 cell viability assay, Huh7; format: cell-based, human
Procedure: This study aimed to assess the anti-proliferative activity of dolutegravir-1,2,3-triazole derivatives on hepatocellular carcinoma cell lines, Huh7 and hepG2. A comprehensive CCK8 assay was employed to evaluate the impact of these compounds on cell viability, with cells treated at a concentration of 20 μM for 48 h. HRM cells, a normal cell line, were included as a control for comparative analysis.
Human hepatocellular carcinoma cell lines Huh7 and hepG2 were obtained from ATCC (Manassas, VA, USA). Cells were cultured in DMEM or RPMI 1640 medium containing 10% FBS and 1% penicillin/streptomycin at 37 °C with a 5% CO2-humidified atmosphere.
as §4

[6] = test system: Cyclin D, Cyclin E, β-catenin; assay: Western blot, cell cycle-related proteins; format: cell-based, human; details: 2, 4, 8 μM, 48 h, Huh7, western blot
Procedure: as §2, §3

SMILES: COc1c2n(cc(C(=O)Nc3cccc(-c4cn(-c5cccc(C(F)(F)F)c5)nn4)c3)c1=O)CC1OCCC(C)N1C2=O (centres unmarked) [Compound 5p]
- plate clone formation (Huh7 cells [1]): dose-dependent anti-proliferative activity
- γ-H2AX expression by immunofluorescence (γ-H2AX in HepG2 cells): increased the expression of γ-H2AX
- LC3 protein expression (LC3): significant increase in expression
- Cell Viability (100%), 20 μM, 48 h, HRM [2]: 16.33%
- ROS generation (Huh7 cells [3]): significant increase in ROS generation
- live Huh7 cells (LIVE/DEAD staining) (Huh7 cells [4]): decreased with increasing concentration
- ratio of dead to live cells (Huh7 cells [4]): increased compared to the untreated group
- Caspase3 protein expression (Caspase3): remained unchanged
- Cell Viability (100%), 20 μM, 48 h, Huh7 (Huh7 cells [5]; 20 μM, Huh7, CCK8, control taken as 100%): 5.93%
- IC50 (Huh7 cells [5]; 48 h, Huh7, CCK8, read-out: half maximal inhibitory concentration (IC50), Huh7): 5.42 ± 0.43 µM
- Cyclin D, Cyclin E or β-catenin expression [6]: no significant differences
